According to US20070264241A1, “Compounds for Enhanced Cancer Therapy” (priority 2004, published 2007):

System: U87MG cells
Assay: XTT cytotoxicity assay of phenylbutyrate and of nucleoside analogues with or without phenylbutyrate pre-incubation
Format: cell-based, human
Conditions: 4-phenylbutyrate cytotoxicity assay, incubation 24 hours; read-out: IC50 U87MG (phenylbutyrate alone)
Procedure: Briefly, cells were harvested by trypsinzation, stained by Tryphan Blue for cell viability counting, seeded in triplicate in 96-well plates (1.000-2.000 cells/well) where after media conditioned with a fixed concentration of phenyl butyrate (3.16 mM) were added to the plates followed by incubation for 24 hours at 37° C. and 5% CO2. Cell proliferation/cytotoxicity was assessed by adding the colour generating substrates of the Cell Proliferation kit II (XTT) from Roche (Cat. No. 1465015) and measuring absorbance at 450 nm and 690 nm with a Thermo Labsystems Multiscan Ascent reader.
(§1) Cells were seeded at a density of 1.000-2.000 cells/well in 96-well plates. Cells were pre-incubated with 4-phenyl butyrate for 24 hours prior to drug exposure by adding media conditioned with phenyl butyrate at a fixed concentration (3.16 mM). Plated incubated for 24 hours (37° C., 5% CO2) where after media was discarded and replaced by media conditioned with various concentrations of nucleoside analogs (e.g. AZT), 200 μl/well. After 120 hours of drug exposure the experiments were terminated. Cell proliferation/cytotoxicity was assessed by adding the colour generating substrates of the Cell Proliferation kit II (XTT) from Roche (Cat. No. 1465015) and measuring absorbance at 450 nm and 690 nm with a Thermo Labsystems Multiscan Ascent reader.
The data was corrected for background media-only absorbance where after the 50% growth inhibitory concentration—IC50 (the dose that inhibits cell growth by 50%) was calculated for each treatment.
Briefly, cells were harvested by trypsinzation, stained by Tryphan Blue (Cambrex) for cell viability counting, seeded in triplicate in poly-L-lysine (PLL) (Sigma # P6282) coated 96-well plates (1.000-2.000 cells/well) where after media conditioned with a fixed concentration of phenyl butyrate (3.16 mM) was added to the plates followed by incubation for 24 hours at 37° C. and 5% CO2. Cell proliferation/cytotoxicity was assessed by adding the colour generating substrates of the
as §1, with “cells/well in PLL coated 96-well plates.” for “cells/well in 96-well plates.”, “of nucleoside analogs; AZT (Sigma # A2169), AraC (Sigma # C6645), Cladribine (CdA) (Sigma #C4438), Gancidovir (GCV) (Sigma # G2536) and Gemcitabine (Orifarm), 200 μl/well.” for “of nucleoside analogs (e.g. AZT), 200 μl/well.”, “Ascent reader. he data was corrected for background media-only absorbance where after the 50% growth inhibitory concentration—IC50 (the dose that inhibits cell growth by 50%) was calculated for ach treatment.” for “Ascent reader.”

4-phenylbutyrate [4-PB]
IC50: 4.14 mM
